Source: the NIST ThermoML archive (doi:10.1016/j.jct.2008.01.024)

Assays:
[1] = excess molar enthalpy (molar enthalpy of mixing); xn = mol fraction of the nth substance listed; details: 101 kPa, Liquid, Flow calorimetry
[2] = Liquid; for mass density: 298.15 K, 101.33 kPa; for vapor or sublimation pressure: Ebulliometric method (Recirculating still)

ClCCCl [1,2-dichloroethane] + CN1CCCC1=O
excess molar enthalpy [kcal/mol], [1]
Details | 298.15 K | 308.15 K
x2 = 0.057 | -0.0545 | –
x2 = 0.058 | – | -0.0578
x2 = 0.105 | -0.111 | –
x2 = 0.107 | – | -0.113
x2 = 0.203 | -0.198 | –
x2 = 0.207 | – | -0.202
x2 = 0.301 | -0.2624 | –
x2 = 0.307 | – | -0.266
x2 = 0.4 | -0.2949 | –
x2 = 0.407 | – | -0.2985
x2 = 0.5 | -0.3021 | –
x2 = 0.507 | – | -0.3043
x2 = 0.601 | -0.2825 | –
x2 = 0.607 | – | -0.2837
x2 = 0.702 | -0.238 | –
x2 = 0.708 | – | -0.238
x2 = 0.805 | -0.175 | –
x2 = 0.808 | – | -0.174
x2 = 0.909 | -0.0935 | -0.0927
x2 = 0.95 | – | -0.0523
x2 = 0.961 | -0.0433 | –
x2 = 0.97 | – | -0.0344

ClCCCCCCCl [1,6-dichlorohexane] + CN1CCCC1=O
excess molar enthalpy [kcal/mol], [1]
Details | 298.15 K | 308.15 K
x2 = 0.041 | – | -0.0055
x2 = 0.06 | – | -0.00789
x2 = 0.068 | -0.0108 | –
x2 = 0.109 | – | -0.0148
x2 = 0.116 | -0.0191 | –
x2 = 0.207 | – | -0.0244
x2 = 0.212 | -0.0311 | –
x2 = 0.305 | – | -0.0325
x2 = 0.309 | -0.0404 | –
x2 = 0.403 | – | -0.037
x2 = 0.405 | -0.0457 | –
x2 = 0.502 | – | -0.0387
x2 = 0.503 | -0.0478 | –
x2 = 0.6 | -0.0457 | -0.0363
x2 = 0.699 | -0.0394 | -0.032
x2 = 0.797 | -0.0294 | –
x2 = 0.799 | – | -0.0241
x2 = 0.896 | -0.0155 | –
x2 = 0.898 | – | -0.0127
x2 = 0.946 | -0.00765 | –
x2 = 0.948 | – | -0.00598
x2 = 0.968 | – | -0.00335

CCCCCCCCCl [1-chlorooctane]
Details | mass density [kg/m3]
[2] | 868.98

CN1CCCC1=O [N-methylpyrrolidone]
Details | mass density [kg/m3]
[2] | 1028.55

ClCCCCCl [1,4-dichlorobutane]
Details | mass density [kg/m3]
[2] | 1133.63

Details | vapor or sublimation pressure [kPa]
[2], 323.15 K | 2.205

CCCCCCCl [1-chlorohexane] + CN1CCCC1=O
excess molar enthalpy [kcal/mol], [1]
Details | 298.15 K | 308.15 K
x2 = 0.062 | – | 0.0165
x2 = 0.064 | 0.0127 | –
x2 = 0.111 | – | 0.0349
x2 = 0.113 | 0.0287 | –
x2 = 0.208 | – | 0.0652
x2 = 0.21 | 0.0554 | –
x2 = 0.306 | – | 0.0891
x2 = 0.308 | 0.0774 | –
x2 = 0.404 | – | 0.104
x2 = 0.406 | 0.0913 | –
x2 = 0.502 | – | 0.112
x2 = 0.503 | 0.0994 | –
x2 = 0.601 | 0.1 | 0.112
x2 = 0.699 | 0.093 | 0.103
x2 = 0.797 | 0.0762 | –
x2 = 0.798 | – | 0.0841
x2 = 0.895 | 0.0466 | –
x2 = 0.897 | – | 0.0507
x2 = 0.944 | 0.0265 | –
x2 = 0.947 | – | 0.027
x2 = 0.967 | – | 0.0174

CCCCCCCCCl [1-chlorooctane] + CN1CCCC1=O
[1]
Details | excess molar enthalpy [kcal/mol]
298.15 K, x2 = 0.073 | 0.0229
298.15 K, x2 = 0.121 | 0.0473
298.15 K, x2 = 0.217 | 0.0887
298.15 K, x2 = 0.314 | 0.12
298.15 K, x2 = 0.411 | 0.141
298.15 K, x2 = 0.507 | 0.152
298.15 K, x2 = 0.604 | 0.154
298.15 K, x2 = 0.701 | 0.143
298.15 K, x2 = 0.798 | 0.12
298.15 K, x2 = 0.895 | 0.076
298.15 K, x2 = 0.943 | 0.0423
308.15 K, x2 = 0.068 | 0.0268
308.15 K, x2 = 0.116 | 0.0533
308.15 K, x2 = 0.213 | 0.098
308.15 K, x2 = 0.309 | 0.132
308.15 K, x2 = 0.406 | 0.155
308.15 K, x2 = 0.504 | 0.167
308.15 K, x2 = 0.602 | 0.1678
308.15 K, x2 = 0.7 | 0.156
308.15 K, x2 = 0.799 | 0.129
308.15 K, x2 = 0.898 | 0.081
308.15 K, x2 = 0.948 | 0.0449
308.15 K, x2 = 0.968 | 0.0263

ClCCCCCCCl [1,6-dichlorohexane]
Details | mass density [kg/m3]
[2] | 1063.7

CCCCCCCl [1-chlorohexane]
Details | mass density [kg/m3]
[2] | 873.21

Details | vapor or sublimation pressure [kPa]
[2], 313.15 K | 2.857

CCCCCl [1-chlorobutane]
Details | mass density [kg/m3]
[2] | 880.72

Details | vapor or sublimation pressure [kPa]
[2], 313.15 K | 25.72

CCCCCl [1-chlorobutane] + CN1CCCC1=O
[1]
Details | excess molar enthalpy [kcal/mol]
298.15 K, x2 = 0.063 | 0.00454
298.15 K, x2 = 0.113 | 0.0098
298.15 K, x2 = 0.213 | 0.0194
298.15 K, x2 = 0.312 | 0.027
298.15 K, x2 = 0.411 | 0.0327
298.15 K, x2 = 0.51 | 0.0363
298.15 K, x2 = 0.608 | 0.037
298.15 K, x2 = 0.706 | 0.0347
298.15 K, x2 = 0.804 | 0.0284
298.15 K, x2 = 0.901 | 0.0167
298.15 K, x2 = 0.949 | 0.00908
308.15 K, x2 = 0.06 | 0.00813
308.15 K, x2 = 0.11 | 0.0153
308.15 K, x2 = 0.208 | 0.0275
308.15 K, x2 = 0.307 | 0.0363
308.15 K, x2 = 0.406 | 0.0421
308.15 K, x2 = 0.504 | 0.0457
308.15 K, x2 = 0.603 | 0.0457
308.15 K, x2 = 0.701 | 0.0421
308.15 K, x2 = 0.799 | 0.0339
308.15 K, x2 = 0.897 | 0.0198
308.15 K, x2 = 0.946 | 0.011
308.15 K, x2 = 0.965 | 0.00598

ClCCCCCl [1,4-dichlorobutane] + CN1CCCC1=O
[1]
Details | excess molar enthalpy [kcal/mol]
298.15 K, x2 = 0.064 | -0.0301
298.15 K, x2 = 0.113 | -0.0535
298.15 K, x2 = 0.21 | -0.097
298.15 K, x2 = 0.308 | -0.131
298.15 K, x2 = 0.406 | -0.152
298.15 K, x2 = 0.505 | -0.162
298.15 K, x2 = 0.604 | -0.158
298.15 K, x2 = 0.703 | -0.139
298.15 K, x2 = 0.803 | -0.107
298.15 K, x2 = 0.903 | -0.0605
298.15 K, x2 = 0.954 | -0.032
308.15 K, x2 = 0.06 | -0.028
308.15 K, x2 = 0.109 | -0.0523
308.15 K, x2 = 0.207 | -0.0942
308.15 K, x2 = 0.305 | -0.125
308.15 K, x2 = 0.403 | -0.147
308.15 K, x2 = 0.501 | -0.156
308.15 K, x2 = 0.599 | -0.152
308.15 K, x2 = 0.698 | -0.135
308.15 K, x2 = 0.797 | -0.103
308.15 K, x2 = 0.895 | -0.0586
308.15 K, x2 = 0.945 | -0.0294
308.15 K, x2 = 0.964 | -0.0189

ClCCCl [1,2-dichloroethane]
Details | mass density [kg/m3]
[2] | 1245.6

Details | vapor or sublimation pressure [kPa]
[2], 313.15 K | 20.75
